Measured values from patent US20150284335A1, “Benzoimidazoles as prolyl hydroxylase inhibitors” (Janssen Pharmaceutica NV, priority 2008, published 2015).
Marks after values point to notes of the source that are not given here.

Experiments:
[1] = biological target: T1, PHD2181-417 (Homo sapiens, UniProt Q9GZT9); test: PHD enzyme activity assay ([14C]-succinic acid production); type: biochemical; conditions: inhibition of PHD2181-417 activity; HIF-1α peptide 10 μM, [5-14C]-2-oxoglutaric acid, 10 minutes; read-out: Enzyme pIC50 (converted);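 further: enzyme expressed in E. coli BL21, assayed in Tris-HCl pH 7.5 with catalase, DTT and ascorbate, [14C]-succinic acid beta-counted after DNP precipitation of residual 2-oxoglutarate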
T1 construct: histidine tag (N, cleaved yes); Smt3 (SUMO) tag (N, cleaved yes); made in house; host or cells: E. coli BL21 (pBAD vector)
T1 sequence (Q9GZT9 181-417): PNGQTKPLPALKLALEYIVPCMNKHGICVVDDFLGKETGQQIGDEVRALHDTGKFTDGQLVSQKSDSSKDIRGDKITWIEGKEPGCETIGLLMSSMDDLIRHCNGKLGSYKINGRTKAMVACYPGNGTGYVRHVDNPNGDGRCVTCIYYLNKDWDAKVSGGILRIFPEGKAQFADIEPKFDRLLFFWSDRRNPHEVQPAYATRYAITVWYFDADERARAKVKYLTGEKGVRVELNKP

[2] = system: Hep-3B cells; test: Cellular assay: EPO secretion in Hep-3B cells; type: cell-based, human; conditions: 24 hours, percent of EPO secretion relative to assay control compound
[3] = final compound concentration 100 μM

SMILES	IC50 [1] [nM]	Cellular % EPO Stimulation [2, 3] [%]	Cellular % EPO Stimulation ([2]; final compound concentration of 10 μM)
COc1ccc2nc(C(=O)NCC(=O)O)[nH]c2c1 [Example 12, [(6-Methoxy-1H-benzoimidazole-2-carbonyl)-amino]-acetic acid]	–	0.50	–
O=C(O)CNC(=O)c1nc2cc(-c3ccc(Oc4ccccc4)cc3)ccc2[nH]1 [Example 18, {[5-(4-Phenoxy-phenyl)-1H-benzoimidazole-2-carbonyl]-amino}-acetic acid]	7940	2.00	–
Cc1c(Br)cc2nc(-n3cc(C(=O)O)cn3)[nH]c2c1C [Example 62, 1-(5-Bromo-6,7-dimethyl-1H-benzoimidazol-2-yl)-1H-pyrazole-4-carboxylic acid]	398	–	–
O=C(O)c1cnn(-c2nc3cc(C(F)(F)F)ccc3[nH]2)c1 [Example 34, 1-(5-Trifluoromethyl-1H-benzoimidazol-2-yl)-1H-pyrazole-4-carboxylic acid]	251	127.80	–
O=C(O)c1cnn(-c2nc3c(Cl)cc(C(F)(F)F)cc3[nH]2)c1 [Example 39, 1-(4-Chloro-6-trifluoromethyl-1H-benzoimidazol-2-yl)-1H-pyrazole-4-carboxylic acid]	158	–	–
C[C@@H](NC(=O)c1nc2cc(C(F)(F)F)cc(C(F)(F)F)c2[nH]1)C(=O)O [Example 52, (R)-2-[(5,7-Bis-trifluoromethyl-1H-benzoimidazole-2-carbonyl)-amino]-propionic acid]	–	17.80	–
O=C(O)c1cnn(-c2nc3cc(-c4cccc(OCc5ccccc5)c4)ccc3[nH]2)c1 [Example 46, 1-[5-(3-Benzyloxy-phenyl)-1H-benzoimidazol-2-yl]-1H-pyrazole-4-carboxylic acid]	50.1	–	–
C[C@H](NC(=O)c1nc2cc(C(F)(F)F)cc(C(F)(F)F)c2[nH]1)C(=O)O [Example 7, (S)-2-[(5,7-Bis-trifluoromethyl-1H-benzoimidazole-2-carbonyl)-amino]-propionic acid]	–	1.60	–
O=C(O)CNC(=O)c1nc2ccccc2[nH]1 [Example 1, [(1H-Benzoimidazole-2-carbonyl)-amino]-acetic acid]	–	23.9	–
O=C(O)c1cnn(-c2nc3cc(-c4cccc(OCc5cccc(Cl)c5)c4)ccc3[nH]2)c1 [Example 43, 1-{5-[3-(3-Chloro-benzyloxy)-phenyl]-1H-benzoimidazol-2-yl}-1H-pyrazole-4-carboxylic acid]	31.6	–	–
O=C(O)c1cn(-c2nc3cc(Br)ccc3[nH]2)nc1C(F)(F)F [Example 55, 1-(5-Bromo-1H-benzoimidazol-2-yl)-3-trifluoromethyl-1H-pyrazole-4-carboxylic acid]	> 100000	–	–
Cc1ccc2[nH]c(-n3cc(C(=O)O)cn3)nc2c1C [Example 41, 1-(4,5-Dimethyl-1H-benzoimidazol-2-yl)-1H-pyrazole-4-carboxylic acid]	7940	–	–
O=C(O)CNC(=O)c1nc2ccc(Br)cc2[nH]1 [Example 9, [(6-Bromo-1H-benzoimidazole-2-carbonyl)-amino]-acetic acid]	–	9.80	–
O=C(O)c1cnn(-c2nc3cc(-c4ccc(O)cc4)ccc3[nH]2)c1 [Example 59, 1-[5-(4-Hydroxy-phenyl)-1H-benzoimidazol-2-yl]-1H-pyrazole-4-carboxylic acid]	251	–	–
O=C(O)CNC(=O)c1nc2cc(C(F)(F)F)cc(C(F)(F)F)c2[nH]1 [Example 6, [(5,7-Bis-trifluoromethyl-1H-benzoimidazole-2-carbonyl)-amino]-acetic acid]	–	4.20	–
O=C(O)c1cnn(-c2nc3cc(-c4cccc(C(F)(F)F)c4)ccc3[nH]2)c1 [Example 48, 1-[5-(3-Trifluoromethyl-phenyl)-1H-benzoimidazol-2-yl]-1H-pyrazole-4-carboxylic acid]	79.4	–	–
COc1cc2nc(-n3cc(C(=O)O)cn3)[nH]c2cc1OC [Example 40, 1-(5,6-Dimethoxy-1H-benzoimidazol-2-yl)-1H-pyrazole-4-carboxylic acid]	398	–	–
Cc1nn(-c2nc3cc(Br)ccc3[nH]2)c(C)c1C(=O)O [Example 57, 1-(5-Bromo-1H-benzoimidazol-2-yl)-3,5-dimethyl-1H-pyrazole-4-carboxylic acid]	63100	–	–
O=C(O)c1cnn(-c2nc3cc(-c4cccc(OCc5ccccc5Cl)c4)ccc3[nH]2)c1 [Example 44, 1-{5-[3-(2-Chloro-benzyloxy)-phenyl]-1H-benzoimidazol-2-yl}-1H-pyrazole-4-carboxylic acid]	25.1	–	–
O=C(O)c1cnn(-c2nc3cc(-c4cccc(O)c4)ccc3[nH]2)c1 [Example 60, 1-[5-(3-Hydroxy-phenyl)-1H-benzoimidazol-2-yl]-1H-pyrazole-4-carboxylic acid]	316	–	–
O=C(O)c1cnn(-c2nc3cc(-c4ccc(OCc5ccccc5)cc4)ccc3[nH]2)c1 [Example 47, 1-[5-(4-Benzyloxy-phenyl)-1H-benzoimidazol-2-yl]-1H-pyrazole-4-carboxylic acid]	200	–	–

Second part, led by results:

IC50 [1] [nM]	SMILES	Cellular % EPO Stimulation [2, 3] [%]	Cellular % EPO Stimulation ([2]; final compound concentration of 10 μM)
> 10000	O=C(O)c1cn(-c2nc3cc(Cl)c(Cl)cc3[nH]2)nc1C(F)(F)F [Example 56, 1-(5,6-dichloro-1H-benzoimidazol-2-yl)-3-trifluoromethyl-1H-pyrazole-4-carboxylic acid]	–	–
1580	O=C(O)CNC(=O)c1nc2cc(-c3cccc(OCc4cccc(Cl)c4)c3)ccc2[nH]1 [Example 13, ({5-[3-(3-Chloro-benzyloxy)-phenyl]-1H-benzoimidazole-2-carbonyl}-amino)-acetic acid]	1.20	–
79400	C[C@@H](NC(=O)c1nc2ccc(F)cc2[nH]1)C(=O)O [Example 11, (R)-2-[(6-Fluoro-1H-benzoimidazole-2-carbonyl)-amino]-propionic acid]	23.93	–
63100	O=C(O)CNC(=O)c1nc2cc(NC(=O)c3ccccc3)ccc2[nH]1 [Example 29, [(5-Benzoylamino-1H-benzoimidazole-2-carbonyl)-amino]-acetic acid]	−3.30	–
> 100000	C[C@@H](NC(=O)c1nc2ccc(I)cc2[nH]1)C(=O)O [Example 54, (R)-2-[(5-Iodo-1H-benzoimidazole-2-carbonyl)-amino]-propionic acid]	7.50	–
39800	Cc1cc(-c2ccc3[nH]c(C(=O)NCC(=O)O)nc3c2)ccc1Cl [Example 27, {[5-(4-Chloro-3-methyl-phenyl)-1H-benzoimidazole-2-carbonyl]-amino}-acetic acid]	−0.70	–
> 100000	CC(NC(=O)c1nc2ccccc2[nH]1)C(=O)O (stereo in doubt) [Example 50, (R)-2-[(1H-Benzoimidazole-2-carbonyl)-amino]-propionic acid]	–	9.50* %
2510	O=C(O)CNC(=O)c1nc2cc(-c3cccc(OCc4ccccc4Cl)c3)ccc2[nH]1 [Example 14, ({5-[3-(2-Chloro-benzyloxy)-phenyl]-1H-benzoimidazole-2-carbonyl}-amino)-acetic acid]	−3.80	–
5010	O=C(O)CNC(=O)c1nc2ccc(NCc3ccccc3)cc2[nH]1 [Example 31, [(6-Benzylamino-1H-benzoimidazole-2-carbonyl)-amino]-acetic acid]	1.40	–
25100	C[C@H](NC(=O)c1nc2cc(Cl)c(Cl)cc2[nH]1)C(=O)O [Example 4, (S)-2-[(5,6-Dichloro-1H-benzoimidazole-2-carbonyl)-amino]-propionic acid]	7.70	–
39800	COc1cccc(-c2ccc3[nH]c(C(=O)NCC(=O)O)nc3c2)c1 [Example 23, {[5-(3-Methoxy-phenyl)-1H-benzoimidazole-2-carbonyl]-amino}-acetic acid]	1.40	–
15800	CCCOc1ccc(-c2ccc3[nH]c(C(=O)NCC(=O)O)nc3c2)cc1 [Example 26, {[5-(4-Propoxy-phenyl)-1H-benzoimidazole-2-carbonyl]-amino}-acetic acid]	2.50	–
39800	C[C@H](NC(=O)c1nc2ccccc2[nH]1)C(=O)O [Example 2, (S)-2-[(1H-Benzoimidazole-2-carbonyl)-amino]-propionic acid]	66.03	–
5010	O=C(O)CNC(=O)c1nc2cc(-c3cccc(OCc4ccccc4F)c3)ccc2[nH]1 [Example 17, ({5-[3-(2-Fluoro-benzyloxy)-phenyl]-1H-benzoimidazole-2-carbonyl}-amino)-acetic acid]	1.50	–
39800	O=C(O)CNC(=O)c1nc2cc(I)ccc2[nH]1 [Example 8, [(5-Iodo-1H-benzoimidazole-2-carbonyl)-amino]-acetic acid]	3.80	–
794	Cc1cc2nc(-n3cc(C(=O)O)cn3)[nH]c2cc1C [Example 36, 1-(5,6-Dimethyl-1H-benzoimidazol-2-yl)-1H-pyrazole-4-carboxylic acid]	–	–
> 10000	Cc1nn(-c2nc3cc(Cl)c(Cl)cc3[nH]2)c(C)c1C(=O)O [Example 58, 1-(5,6-Dichloro-1H-benzoimidazol-2-yl)-3,5-dimethyl-1H-pyrazole-4-carboxylic acid]	–	–
501	O=C(O)c1cnn(-c2nc3cc(Cl)ccc3[nH]2)c1 [Example 61, 1-(5-Chloro-1H-benzoimidazol-2-yl)-1H-pyrazole-4-carboxylic acid]	–	–
79.4	O=C(O)c1cnn(-c2nc3cc(-c4ccc(Cl)c(Cl)c4)ccc3[nH]2)c1 [Example 49, 1-[5-(3,4-Dichloro-phenyl)-1H-benzoimidazol-2-yl]-1H-pyrazole-4-carboxylic acid]	–	–
